# Measurements as given in BindingDB's records for doi:10.1016/j.ejmech.2016.09.095 (Orleans University, 2017).
# Legend:
# [1] = target: Alpha-N-acetylglucosaminidase (Homo sapiens) (UniProt P54802); test: Inhibition of alpha-hexosaminidase in human PBMC using 4-methylumbelliferyl 2-acetamido-2-deoxy-alpha-D-glucopyranoside as substrate at pH 4.3 after 17 hrs by fluorescence assay
# [2] = target: Alpha-N-acetylglucosaminidase (Homo sapiens) (UniProt P54802); test: Inhibition of alpha-hexosaminidase (unknown origin)
# Alpha-N-acetylglucosaminidase (Homo sapiens), sequence (P54802 whole entry, looked up): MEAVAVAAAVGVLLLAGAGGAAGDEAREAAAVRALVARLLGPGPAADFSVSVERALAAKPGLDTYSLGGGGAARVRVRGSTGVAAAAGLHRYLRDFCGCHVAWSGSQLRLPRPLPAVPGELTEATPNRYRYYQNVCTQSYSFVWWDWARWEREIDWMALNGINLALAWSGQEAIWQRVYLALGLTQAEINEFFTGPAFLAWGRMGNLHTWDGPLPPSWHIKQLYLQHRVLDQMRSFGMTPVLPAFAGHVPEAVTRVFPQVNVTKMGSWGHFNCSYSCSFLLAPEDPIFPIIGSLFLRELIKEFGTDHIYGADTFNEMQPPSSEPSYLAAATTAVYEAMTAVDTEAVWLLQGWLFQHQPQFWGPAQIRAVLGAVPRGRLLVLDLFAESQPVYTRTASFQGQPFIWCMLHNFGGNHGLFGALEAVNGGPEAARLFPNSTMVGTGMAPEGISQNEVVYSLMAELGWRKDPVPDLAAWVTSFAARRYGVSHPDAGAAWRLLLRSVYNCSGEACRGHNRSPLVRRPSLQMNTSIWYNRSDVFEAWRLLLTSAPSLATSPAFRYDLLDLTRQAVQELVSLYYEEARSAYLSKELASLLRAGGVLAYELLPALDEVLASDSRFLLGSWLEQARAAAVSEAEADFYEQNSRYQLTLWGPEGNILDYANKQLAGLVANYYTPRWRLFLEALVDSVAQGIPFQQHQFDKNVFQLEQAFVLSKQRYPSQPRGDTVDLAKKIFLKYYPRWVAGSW
Compound,IC50 [1] [nM],IC50 [2] [nM]
CCCCC[C@H]1NC[C@@H](O)[C@@H](O)[C@H]1CO,> 160000,–
CC(=O)N[C@@H]1[C@@H](O)[C@H](O)[C@@H](CO)N[C@@H]1COCCCCc1ccccc1,–,100
